“Also recorded” adds a separate entry of the source.
How the values were obtained:
LoVo = experiment: Sensitivity of colon cancer cell lines to AKT1/2 inhibitor (cell killing); type: cell-based, human; details: in vitro, grouping is relative
Description: (§1) FIG. 2. Cell lines used as a starting point for signature gene discovery. Nineteen colon cancer cell lines were phenotyped for sensitivity to the AKT1/2 inhibitor L-001154547.
(§2) In order to identify a gene expression signature of growth factor signaling pathway deregulation in human tumors, six colon carcinoma cell lines HCT-8 (ATCC #CCL-244), LoVo (ATCC #CCL-229), COLO205 (ATCC #CLL-222), DLD-1 (ATCC #CCL-221), HCT-116 (ATCC #CCL-247), and HCT-15 (ATCC #CCL-225) were initially expression profiled by microarray to identify genes that are responsive to AKT1/2 small molecule inhibition. The six colon cancer cell lines were treated with either 4 μM AKT1/2 inhibitor L-001154547 ('547; 3-phenyl-2-(4-{[4-(5-pyridin-2-yl-1H-1,2,4-triazol-3-yl)piperidin-1-yl]methyl}phenyl)-1,6-naphthyridin-5(6H)-one; disclosed in WO2006065601) or 4 μM AKT1/2 inhibitor L-01173931 ('931; 6-Methyl-3-phenyl-2-(4-{[4-(5-pyridin-2-yl-1H-1,2,4-triazol-3-yl)piperidin-1-yl]-methyl}phenyl)-1,6-naphthyridin-5(6H)-one; disclosed in WO2006065601) for 6 or 24 hours. Two AKT1/2 inhibitors were used for the profiling experiments as a way to offset any off-target effects of any one compound.
(§3) Discriminant analysis of responders and non-responders using post-dose changes of gene expression was 90% accurate in leave-one-out cross-validation (data not shown). Among these 1,600 genes, we focused on 399 genes that were tightly correlated (r>0.7) with changes in expression of IRS2 across this dataset, a key mediator of growth pathway signaling (FIG. 3B) (Hennessy et al., 2005, Nat. Rev. Drug Discov. 4:988-1004). Note that the sensitivity and resistance phenotypes shown in FIG. 1 are relative, not absolute.

COLO205 = experiment: as above; type: cell-based, human; details: in vitro, grouping is relative
Description: as §1, §2, §3

HCT-15 = experiment: as above; type: cell-based, human; details: in vitro, grouping is relative
Description: as §1, §2, §3

HCT-116 = experiment: as above; type: cell-based, human; details: in vitro, grouping is relative
Description: as §1, §2, §3

DLD-1 = experiment: as above; type: cell-based, human; details: in vitro, grouping is relative
Description: as §1, §2, §3

HCT-8 = experiment: as above; type: cell-based, human; details: in vitro, grouping is relative
Description: as §1, §2, §3

proliferation signature = experiment: Signature inhibition in the connectivity map dataset; type: cell-based; details: for Enrichment / Rank in terms of significance of signature inhibition: Proliferation signature, connectivity map dataset; for Rank in terms of significance of signature inhibition: rank among all compounds
Description: (§4) To further validate the growth factor signature, we leveraged signatures of drug response from the connectivity map dataset (Lamb et al., 2006, Science 313:1929-1935). This dataset comprises mRNA expression data for 164 distinct small molecules, representing 453 individual compound treatment experiments. These small molecule inhibitors include the PI3K inhibitors wortmannin and LY-294002 and the mTOR inhibitor sirolimus. We surmised that if the growth factor signature truly represents activation of the PI3K pathway, these compounds should have an inhibitory effect on the signature. […] In contrast, other perturbagens in the connectivity map dataset either have no effect, a less significant inhibitory effect, or an activating effect on the growth factor signaling signature. […] For example, while LY-294002 was the top ranked compound in terms of significance of proliferation signature inhibition, sirolimus was ranked fifth, and wortmannin was ranked 23rd (Table 12).

growth factor signature = experiment: as above; type: cell-based; details: for Enrichment / Rank in terms of significance of signature inhibition: Growth Factor Signaling Pathway signature, connectivity map dataset; for Rank in terms of significance of signature inhibition: rank among all compounds; for rank in terms of significance of growth factor signature inhibition: among all compounds in the connectivity map dataset
Description: as §4

MYC signature [1] = experiment: as above; type: cell-based; details: c-MYC signature; for Rank in terms of significance of signature inhibition: rank among all compounds
MYC signature [2] = experiment: MYC signature (Bild et al.) in response to inhibition of oncology targets; type: cell-based; details: cancer cell lines of FIG. 6C
Procedure: FIG. 6. Relationship of AKT and MYC signatures. The AKT and MYC signature scores are highly correlated in the (A) colon (r=0.81) and (B) breast (r=0.82) tumor atlas datasets. The AKT signature score was calculated as described previously. […] (C) The Bild et al. MYC signature is inhibited by small molecule inhibitors of AKT, cMET and FGFR2, but not by taxol or inhibition of KSP. […] Experiments are listed on the left side of the heatmap (HCT116: colon cancer cells, LoVo: colon cancer cells, GTL-16: gastric cancer cells, EBC-1: lung cancer cells, KATO III: gastric cancer cells, SUM52: breast cancer cells). The drug (taxol) or drug target (all others) profiled in each experiment is indicated along the right side of the heatmap.
Bild et al. published a gene expression signature that was regulated in response to cMYC (also known as MYC) overexpression in primary human mammary epithelial cells (2006, Nature, 439:353-357). This MYC signature was analyzed in the context of tumor expression atlas data. The tumor expression atlas is a collection of gene expression data measured in several different types of human tumors, including breast, colon, gastric, kidney, and lung tumors. […] Therefore, we assessed the regulation of the MYC signature in response to inhibition of AKT and other oncology targets. […]

ERBB3 = experiment: mRNA expression of growth factor receptors after growth factor treatment (microarray); type: cell-based, human; details: MCF7 and HT29 cells; 100 ng/ml (heregulin 30 ng/ml)
Procedure: (§5) FIG. 29. Negative feedback induced by growth factors. The data presented represents the effect of each growth factor on the mRNA expression of (A) EGFR, (B) ERBB3, (C) INSR, or (D) a recently published signature of aberrant PTEN activity. The Y-axes represent the log(10) ratio of expression relative to vehicle. […] The X-axes represent the time point after growth factor addition.
(§6) MCF-7 and HT-29 cell lines were seeded in 6-well plates to achieve 40-50% confluence at the time of growth factor addition. Cells were serum starved for 24 hours in 0.2% charcoal stripped serum, and growth factors were added at 100 ng/ml (EGF, IGF, insulin, b-FGF) or 30 ng/ml (heregulin). Concentrations of growth factors were chosen to give maximal activation of growth factor receptors as judged by receptor auto-phosphorylation. Activation of growth factor receptor pathways after growth factor addition was confirmed by Western analysis of phosphorylated MAPK and phosphorylated AKT in a separate plate of cells (data not shown). Cells were harvested at 30 minutes, 2 hours, 6 hours, 18 hours, and 24 hours after growth factor addition. DMSO (vehicle) treated cells were also harvested at each time point. RNA was prepared using RLT lysis reagent Qiagen spin columns according to manufacturer instructions.
(§7) For growth factor and AKT inhibitor treated cells, total RNA was isolated from cell lines and converted to fluorescently labeled cRNA that was hybridized to DNA oligonucleotide microarrays as described previously (Hughes et al., 2001, Nat. Biotechnol. 19:342-347; Marton et al., 1998, Nat. Med. 4:1293-1301). Briefly, 4 μg of total RNA from each treated sample was used to synthesize dsDNA through reverse transcription. cRNA was produced by in vitro transcription and labeled post-synthetically with Cy3 or Cy5. cRNA derived from growth factor or AKT inhibitor treated cells (experimental sample) was hybridized against cRNA derived from vehicle treated samples (reference sample). Two hybridizations were done with each cRNA sample pair using fluorescent dye reversal strategy. For growth factor treated cells, microarrays contained 23,880 probes representing genes or expressed sequence tags (GEO platform GPL2029). For AKT inhibitor treated cells, microarrays contained 23,658 probes representing genes or expressed sequence tags (GEO platform GPL3991). Probe sequences were chosen to maximize gene specificity and minimize the 3′-replication bias inherent in reverse transcription of mRNA. In addition, all microarrays contained approximately 2,000 control probes for quality control purposes. All probes on the microarrays were synthesized in situ with inkjet technology (Agilent Technologies, Palo Alto, Calif.; Hughes et al, 2001, Nat. Biotechnol. 19:342-347). After hybridization, arrays were scanned and fluorescence intensities for each probe were recorded. Ratios of transcript abundance (experimental to control) were obtained following normalization and correction of the array intensity data. Gene expression data was analyzed using Rosetta Resolver gene expression analysis software (version 7.0, Rosetta Biosoftware, Seattle, Wash.) and MATLAB (The MathWorks, Natick, Mass.).
(§8) As such, care should be taken when using mRNA levels of ERBB3 or INSR as a surrogate for activity of signaling through these receptors.

EGFR = experiment: as above; type: cell-based, human; details: MCF7 and HT29 cells; 100 ng/ml (heregulin 30 ng/ml)
Procedure: as §5, §6, §7, §8

INSR = experiment: as above; type: cell-based, human; details: MCF7 and HT29 cells; 100 ng/ml (heregulin 30 ng/ml)
Procedure: as §5, §6, §7, §8

[3] = system: growth factor signaling pathway signature; experiment: Regulation of the growth factor signaling pathway signature by growth factors and inhibitors; type: cell-based; details: HT29 and MCF7 cells; 0.5, 2, 6, 18, or 24 hours
Description: FIG. 9. Inverse regulation of the growth factor signaling pathway signature by growth factors relative to growth factor pathway inhibitors. Genes listed in Table 5 are shown along the Y-axis, and various treatments are listed along the X-axis. The drug treatment/drug targets are listed along the left hand side, and functional groupings are listed along the right hand side. […] From the growth factor compendium, we show data from both colon (HT29) and breast (MCF7) cells treated with heregulin (a growth factor that binds to Erbb family receptors and activates PI3K/AKT signaling). Cells were treated with heregulin for 0.5, 2, 6, 18, or 24 hours.
Because we developed this novel growth factor signaling pathway signature based on regulation by inhibitors of growth factor pathway signaling, we hypothesized that our signature genes would be inversely regulated in vitro by treatments that activate growth factor signaling.

| Compound | ERBB3 mRNA expression (ERBB3) | INSR mRNA expression (INSR) | Enrichment (proliferation signature) | Rank in terms of significance of signature inhibition (proliferation signature) | Enrichment (growth factor signature) | Rank in terms of significance of signature inhibition (growth factor signature) | rank in terms of significance of growth factor signature inhibition (growth factor signature) | Enrichment (MYC signature [1]) | Rank in terms of significance of signature inhibition (MYC signature [1]) | further results |
| --- | --- | --- | --- | --- | --- | --- | --- | --- | --- | --- |
| O=c1[nH]ccc2nc(-c3ccc(CN4CCC(c5n[nH]c(-c6ccccn6)n5)CC4)cc3)c(-c3ccccc3)cc12 [L-001154547, 3-phenyl-2-(4-{[4-(5-pyridin-2-yl-1H-1,2,4-triazol-3-yl)piperidin-1-yl]methyl}phenyl)-1,6-naphthyridin-5(6H)-one] | – | – | – | – | – | – | – | – | – | sensitivity to AKT inhibition (LoVo): more sensitive; also recorded: relatively sensitive; sensitivity to AKT inhibition (COLO205): more sensitive; also recorded: relatively sensitive; sensitivity to AKT inhibition (HCT-15): more resistance; also recorded: relatively resistant; sensitivity to AKT inhibition (HCT-116): more resistance; also recorded: relatively resistant; sensitivity to AKT inhibition (DLD-1): more resistance; also recorded: relatively resistant; sensitivity to AKT inhibition (HCT-8): more sensitive; also recorded: relatively sensitive |
| O=c1cc(N2CCOCC2)oc2c(-c3ccccc3)cccc12 [LY-294002] | – | – | −0.527 | 1 | −0.748 | 3 | 3 | −0.602 | 2 | – |
| CO[C@H]1C[C@@H]2CC[C@@H](C)[C@@](O)(O2)C(=O)C(=O)N2CCCC[C@H]2C(=O)O[C@H]([C@H](C)C[C@@H]2CC[C@@H](O)[C@H](OC)C2)CC(=O)[C@H](C)/C=C(\C)[C@@H](O)[C@@H](OC)C(=O)[C@H](C)C[C@H](C)/C=C/C=C/C=C/1C [sirolimus] | – | – | −0.482 | 5 | −0.865 | 1 | 1 | −0.68 | 1 | – |
| CC(=O)O[C@H]1C(=O)[C@@]2(C)[C@H]([C@H](OC(=O)c3ccccc3)[C@]3(O)C[C@H](OC(=O)[C@H](O)[C@@H](NC(=O)c4ccccc4)c4ccccc4)C(C)=C1C3(C)C)[C@]1(OC(C)=O)CO[C@@H]1C[C@@H]2O [taxol] | – | – | – | – | – | – | – | – | – | inhibition of the MYC signature developed by Bild et al. (MYC signature [2]): not inhibited |
| COC[C@H]1OC(=O)c2coc3c2[C@@]1(C)C1=C(C3=O)[C@@H]2CCC(=O)[C@@]2(C)C[C@H]1OC(C)=O [wortmannin] | – | – | −0.387 | 23 | −0.776 | 2 | 2 | −0.561 | 7 | rank in terms of significance of proliferation signature inhibition (proliferation signature; among all compounds in the connectivity map dataset): 23 |

Second part, led by results:

| ERBB3 mRNA expression (ERBB3) | INSR mRNA expression (INSR) | Compound | Enrichment (proliferation signature) | Rank in terms of significance of signature inhibition (proliferation signature) | Enrichment (growth factor signature) | Rank in terms of significance of signature inhibition (growth factor signature) | rank in terms of significance of growth factor signature inhibition (growth factor signature) | Enrichment (MYC signature [1]) | Rank in terms of significance of signature inhibition (MYC signature [1]) | further results |
| --- | --- | --- | --- | --- | --- | --- | --- | --- | --- | --- |
| significant down-regulation | significant down-regulation | EGF: growth factor added to cells at 100 ng/ml | – | – | – | – | – | – | – | EGFR mRNA expression (EGFR): did not result in down-regulation |
| significant down-regulation | significant down-regulation | IGF: growth factor added to cells at 100 ng/ml | – | – | – | – | – | – | – | – |
| significant down-regulation | significant down-regulation | b-FGF: growth factor added to cells at 100 ng/ml | – | – | – | – | – | – | – | – |
| significant down-regulation | significant down-regulation | heregulin | – | – | – | – | – | – | – | regulation of the growth factor signaling pathway signature genes [3]: inverse regulation of the signature genes |
| significant down-regulation | significant down-regulation | insulin: growth factor added to cells at 100 ng/ml | – | – | – | – | – | – | – | – |

Reference: patent US8392127B2, “Methods and gene expression signature for assessing growth factor signaling pathway regulation status” (Merck Sharp & Dohme Corp., priority 2008, dated 2013)
